According to ChEMBL document CHEMBL6096732 (J Med Chem, 2025):
Active and inactive are the calls of the source. The rule behind the calls is not given here.

Key:
Histone deacetylase 7 = Histone deacetylase 7 (Homo sapiens, UniProt Q8WUI4); experiment: Inhibition of recombinant HDAC7 (unknown origin) using Boc-Lys(trifluoroacetyl)-AMC as substrate preincubated for 1 hr followed by substrate addition and measured after 2 hrs by fluorescence based micro plate reader analysis
[1] = Ratio of AUC (0 to t) to AUC (0 to infinity) in male Sprague-Dawley rat at 20 mg/kg, po measured after 12 hrs by LC-MS/MS analysis; type: ADME, organism-based; conditions: in vivo
B16-F10 [2] = experiment: cells; type: functional, cell-based; conditions: Mus musculus, B16-F10, 72 h
Description: Antiproliferative activity against mouse B16-F10 cells assessed as inhibition of cell growth incubated for 72 hrs by MTT assay

[3] = biological target: T1, Histone deacetylase 3 (Mus musculus) (UniProt O88895); experiment: Inhibition of HDAC3 in mouse B16-F10 cells assessed as increase in histone H3 acetylation level at 5 to 20 uM incubated for 24 hrs by Western blot analysis; type: cell-based; conditions: dose 5-20 µM
T1 sequence (whole entry): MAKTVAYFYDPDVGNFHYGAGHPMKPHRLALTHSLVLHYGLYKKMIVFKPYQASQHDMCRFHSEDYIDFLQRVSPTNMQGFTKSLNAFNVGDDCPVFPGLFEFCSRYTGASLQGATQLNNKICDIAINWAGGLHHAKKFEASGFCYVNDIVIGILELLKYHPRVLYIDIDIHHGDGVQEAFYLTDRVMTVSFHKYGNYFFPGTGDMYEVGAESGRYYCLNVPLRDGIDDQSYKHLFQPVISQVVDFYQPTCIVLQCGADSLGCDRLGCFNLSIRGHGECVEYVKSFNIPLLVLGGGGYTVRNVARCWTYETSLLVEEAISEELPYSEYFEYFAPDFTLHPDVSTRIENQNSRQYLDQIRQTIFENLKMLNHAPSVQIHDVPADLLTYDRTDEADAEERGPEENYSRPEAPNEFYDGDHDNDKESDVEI

[4] = biological target: T1, Histone deacetylase 3 (Mus musculus); experiment: Inhibition of HDAC3 in mouse 4T1 cells assessed as increase in histone H3 acetylation level at 5 to 20 uM incubated for 24 hrs by Western blot analysis; type: cell-based; conditions: dose 5-20 µM
[5] = biological target: Programmed cell death 1 ligand 1 (Mus musculus) (UniProt Q9EP73); experiment: Induction of PD-L1 degradation in mouse B16-F10 cells assessed as decrease in PD-L1 protein level at 5 uM incubated for 24 hrs by DAPI staining based immunofluorescence analysis; type: cell-based
Chain of Programmed cell death 1 ligand 1 (Mus musculus) (Q9EP73 whole entry): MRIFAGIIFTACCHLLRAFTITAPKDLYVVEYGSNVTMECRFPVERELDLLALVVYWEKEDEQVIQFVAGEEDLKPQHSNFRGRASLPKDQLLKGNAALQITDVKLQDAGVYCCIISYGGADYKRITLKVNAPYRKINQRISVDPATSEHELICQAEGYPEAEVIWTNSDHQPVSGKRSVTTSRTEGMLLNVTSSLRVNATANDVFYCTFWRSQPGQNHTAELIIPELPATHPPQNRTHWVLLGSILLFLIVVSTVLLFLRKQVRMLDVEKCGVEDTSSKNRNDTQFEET

[6] = biological target: T1, Histone deacetylase 3 (Mus musculus); experiment: Inhibition of HDAC3 in mouse B16-F10 cells assessed as increase in acetylated histone H3 level at 5 uM incubated for 24 hrs by DAPI staining based immunofluorescence analysis; type: cell-based
4T1 [7] = experiment: Downregulation of PARP1 expression in mouse 4T1 cells at 2 uM incubated for 24 hrs by Western blot analysis; type: functional, cell-based
B16-F10 [8] = experiment: Induction of DNA damage in mouse B16-F10 cells assessed as increase in gamma-H2AX expression at 2 uM incubated for 24 hrs in presence of olaparib by Western blot analysis; type: functional, cell-based
[9] = AUC (0 to infinity) in male Sprague-Dawley rat at 2 mg/kg, iv measured after 12 hrs by LC-MS/MS analysis; type: ADME, organism-based; conditions: in vivo
[10] = MRT (0 to infinity) in male Sprague-Dawley rat at 2 mg/kg, iv measured after 12 hrs by LC-MS/MS analysis; type: ADME, organism-based; conditions: in vivo
[11] = Half-life in male Sprague-Dawley rat at 2 mg/kg, iv measured after 12 hrs by LC-MS/MS analysis; type: ADME, organism-based; conditions: in vivo
[12] = Cmax in male Sprague-Dawley rat at 2 mg/kg, iv measured after 12 hrs by LC-MS/MS analysis; type: ADME, organism-based; conditions: in vivo
[13] = AUC (0 to 12 hrs) in male Sprague-Dawley rat at 20 mg/kg, po measured after 12 hrs by LC-MS/MS analysis; type: ADME, organism-based; conditions: in vivo
[14] = AUC (0 to infinity) in male Sprague-Dawley rat at 20 mg/kg, po measured after 12 hrs by LC-MS/MS analysis; type: ADME, organism-based; conditions: in vivo
[15] = AUMC (0 to infinity) in male Sprague-Dawley rat at 20 mg/kg, po measured after 12 hrs by LC-MS/MS analysis; type: ADME, organism-based; conditions: in vivo
[16] = VRT (0 to t) in male Sprague-Dawley rat at 20 mg/kg, po measured after 12 hrs by LC-MS/MS analysis; type: ADME, organism-based; conditions: in vivo
[17] = Clast in male Sprague-Dawley rat at 20 mg/kg, po measured after 12 hrs by LC-MS/MS analysis; type: ADME, organism-based; conditions: in vivo, read-out: Clast
[18] = Tmax in male Sprague-Dawley rat at 20 mg/kg, po measured after 12 hrs by LC-MS/MS analysis; type: ADME, organism-based; conditions: in vivo
[19] = Clearance in male Sprague-Dawley rat at 20 mg/kg, po measured after 12 hrs by LC-MS/MS analysis; type: ADME, organism-based; conditions: in vivo
B16-F10 [20] = experiment: Synergistic antitumor activity against mouse B16-F10 cells implanted in male C57BL/6 mouse model assessed as tumor growth inhibition at 50 mg/kg, po co-administered with NP-19 as once daily dosage via gavage for 14 days relative to control; type: functional; conditions: B16-F10, 336 h, time 14 day, read-out: TGI
Mus musculus [21] = experiment: Immunomodulatory activity in male C57BL/6 mouse model implanted with mouse B16-F10 cells assessed as increase in CD3+ CD4+ T cells in tumor at 50 mg/kg, po administered once daily for 14 days by flow cytometric analysis (reference value: 3.1 %); type: functional; conditions: time 14 day
Mus musculus [22] = experiment: Effect on acetylated alpha-tubulin level in male C57BL/6 mouse tumor implanted with mouse B16-F10 cells at 50 mg/kg, po administered once daily via gavage for 14 days by Western blot analysis; type: functional, organism-based; conditions: time 14.0 day
Mus musculus [23] = experiment: In vivo induction of PD-L1 degradation in male C57BL/6 mouse model implanted with mouse B16-F10 cells assessed as decrease in PD-L1 protein expression in tumor at 50 mg/kg, po administered once daily via gavage for 14 days by Western blot analysis; type: functional, organism-based; conditions: time 14.0 day
[24] = biological target: T1, Histone deacetylase 3 (Mus musculus); experiment: In vivo inhibition of HDAC3 in male C57BL/6 mouse model implanted with mouse B16-F10 cells assessed as increase in acetylated histone H3 level in tumor at 50 mg/kg, po administered once daily via gavage for 14 days by DAPI staining based immunofluorescence analysis; type: functional, organism-based; conditions: time 14.0 day
[25] = biological target: T1, Histone deacetylase 3 (Mus musculus); experiment: In vivo inhibition of HDAC3 in male C57BL/6 mouse model implanted with mouse B16-F10 cells assessed as increase in acetylated histone H3 level in tumor at 50 mg/kg, po co-administered with NP-19 as once daily dosage via gavage for 14 days by DAPI staining based immunofluorescence analysis; type: functional, organism-based; conditions: time 14.0 day
Mus musculus [26] = experiment: In vivo induction of PD-L1 degradation in male C57BL/6 mouse model implanted with mouse B16-F10 cells assessed as decrease in PD-L1 protein expression in tumor at 50 mg/kg, po administered once daily via gavage for 14 days by DAPI staining based immunofluorescence analysis; type: functional, organism-based; conditions: time 14.0 day
4T1 [27] = experiment: Antitumor activity against mouse 4T1 cells implanted in female BALB/c mouse model assessed as decrease in PAPR1 expression in tumor administrated orally as once daily dose via gavage for 14 days by DAPI staining based immunofluorescence analysis; type: functional, cell-based; conditions: route po, time 14.0 day

Chain of Histone deacetylase 7 (Q8WUI4 whole entry): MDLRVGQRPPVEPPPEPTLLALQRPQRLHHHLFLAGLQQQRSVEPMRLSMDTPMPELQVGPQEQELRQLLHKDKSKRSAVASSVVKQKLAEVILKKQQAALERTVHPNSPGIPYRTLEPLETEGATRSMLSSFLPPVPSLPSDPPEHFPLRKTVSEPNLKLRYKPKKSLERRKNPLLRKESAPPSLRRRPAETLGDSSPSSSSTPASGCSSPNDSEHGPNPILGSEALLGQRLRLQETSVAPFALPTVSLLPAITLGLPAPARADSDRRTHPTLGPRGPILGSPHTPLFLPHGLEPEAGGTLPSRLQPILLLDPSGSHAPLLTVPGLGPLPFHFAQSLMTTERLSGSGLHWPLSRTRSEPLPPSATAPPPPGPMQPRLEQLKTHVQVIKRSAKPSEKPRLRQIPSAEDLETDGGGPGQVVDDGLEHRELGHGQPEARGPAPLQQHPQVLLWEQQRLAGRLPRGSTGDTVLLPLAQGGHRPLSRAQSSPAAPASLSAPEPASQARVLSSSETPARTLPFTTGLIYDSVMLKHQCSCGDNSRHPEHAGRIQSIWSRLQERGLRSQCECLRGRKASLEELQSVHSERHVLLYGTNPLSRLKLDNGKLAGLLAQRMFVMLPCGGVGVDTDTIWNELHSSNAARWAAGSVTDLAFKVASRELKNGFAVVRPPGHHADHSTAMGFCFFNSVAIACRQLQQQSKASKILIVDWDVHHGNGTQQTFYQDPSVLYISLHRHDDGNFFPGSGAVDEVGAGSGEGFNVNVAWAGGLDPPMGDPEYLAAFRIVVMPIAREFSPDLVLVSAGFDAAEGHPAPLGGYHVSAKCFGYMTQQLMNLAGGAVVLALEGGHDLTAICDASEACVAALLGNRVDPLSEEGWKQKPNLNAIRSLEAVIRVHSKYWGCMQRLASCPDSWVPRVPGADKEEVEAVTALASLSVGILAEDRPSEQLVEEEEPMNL

CCCNNC(=O)c1ccc(Cn2c3ccccc3c3c(-c4ccccn4)nc4ccccc4c32)cc1
IC50 (Histone deacetylase 7): > 10 µM | Ratio AUC [1]: 96.65% | IC50 (B16-F10 [2]): 5.56 µM | inhibition [3]: Active | inhibition [4]: Active | Activity [5]: Active | inhibition [6]: Active | Activity (4T1 [7]): Active | Activity (B16-F10 [8]): Active | AUC(0-inf) [9]: 857 ng·h/mL | MRT inf [10]: 44.5 min | half-life [11]: 37.8 min | Cmax [12]: 1040 ng/mL | AUC(0-t) at 12 h [13]: 7830 ng·h/mL | AUC(0-inf) [14]: 8170 ng·h/mL | AUMC [15]: 39983.874 hr.hr.ug/L | VRT(t) [16]: 7.932 hr2 | concentration at 12 h [17]: 106 ng/mL | Tmax [18]: 30 min | CL/F [19]: 41.1 mL/min/kg | inhibition in vivo at 50 mg/kg (B16-F10 [20]): 80% | Activity (Mus musculus [21]): 22% | Activity (Mus musculus [22]): inactive | Activity (Mus musculus [23]): Active | inhibition [24]: Active | inhibition [25]: Active | Activity (Mus musculus [26]): Active | Activity (4T1 [27]): Active; Comparable To The Effect Of Olaparib
